Consider 13 molecules from patent US4725580A (Sanofi, priority 1985, dated 1988).

Starred links: 1 amine or outer side, 2 acyl side, 3 side chain; linkers in the order of their positions; H or OH if unused. Non-standard residues stand in square brackets, D forms with d. Residues, ends and D or L forms follow the SMILES beside them. *: point of attachment. Propanoyl(3-(3-pyridyl)) = O=C(CCc1cccnc1)*; Propanoyl(3-(4-pyridyl)) = O=C(CCc1ccncc1)*; Acetyl(pyridin-2-yl) = O=C(Cc1ccccn1)*; Sta = CC(C)C[C@H](N)[C@@H](O)CC(=O)O; Acetyl(3-pyridyl) = O=C(Cc1cccnc1)*; Acetyl(4-pyridyl) = O=C(Cc1ccncc1)*; X3 = O=C(CC1CCCN([*:1])C1)[*:2]; Nicotinoyl = O=C(c1cccnc1)*; X2 = O=C(CCC(=O)*)c1ccccn1; X6 = O=C(CCC(=O)*)c1cccnc1; X5 = O=C(CCC(O)c1ccccn1)*; X7 = O=C(CCC(O)c1cccnc1)*; Nle = CCCC[C@H](N)C(=O)O; X1 = O=C(CCCc1ccccn1)*; X8 = O=C(CCCc1cccnc1)*; Boc = CC(C)(C)OC(=O)*

The target of the test is T1, human plasma renin (Homo sapiens, UniProt P00797).
T1 construct: from tissue; host or cells: human plasma pool
T1 sequence (P00797 67-406): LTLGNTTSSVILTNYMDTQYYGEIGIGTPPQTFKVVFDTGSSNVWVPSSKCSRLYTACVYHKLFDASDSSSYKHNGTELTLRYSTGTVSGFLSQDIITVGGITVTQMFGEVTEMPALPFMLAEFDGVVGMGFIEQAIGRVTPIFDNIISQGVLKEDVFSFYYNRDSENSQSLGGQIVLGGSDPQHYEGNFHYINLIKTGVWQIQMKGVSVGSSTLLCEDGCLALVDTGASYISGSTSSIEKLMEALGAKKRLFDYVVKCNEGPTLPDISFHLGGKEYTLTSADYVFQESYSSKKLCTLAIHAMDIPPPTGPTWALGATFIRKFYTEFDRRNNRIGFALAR
The experiment in a line: Inhibition of human plasma renin activity (PRA) in vitro, angiotensin I released measured by radioimmunoassay. Format: biochemical. The following applies: human plasma pool rich in renin, 60 minutes at 37° C., phosphate buffer pH 7.4; 5 to 10 doses; read-out: Inhibition of human PRA -log IC50 M pH 7.4 (converted). The method, then:
The products according to the invention were studied for their therapeutic properties and especially their inhibitory action on enzymes. More particularly, the compounds were evaluated "in vitro" in terms of their inhibition of human plasma renin activity (PRA).
Human plasma contains the substrate angiotensinogen and the enzyme renin. […] An inhibitor of the conversion enzyme, phenylmethylsulfonyl fluoride (PMSF), is added to the incubation medium.
420 microliters of human plasma
11 to 50 microliters of the product to be studied, at variable concentrations
A solution of acetic acid in methaol (19/1 by volume) and a solution of sodium hydroxide in methanol (2/1 by volume) are prepared. In a mixture of equal volumes of these 2 solutions, a 0.001M stock solution of the peptide is prepared. The subsequent dilutions of the peptide are then made up in the phosphate buffer.
The results are expressed by their logarithmic value (-log IC50).
In the case of `CCCC[C@H](NC(=O)[C@H](Cc1ccccc1)NC(=O)Cc1cccnc1)C(=O)N[C@@H](CC(C)C)[C@@H](O)CC(=O)N[C@@H](CC(C)C)C(=O)N[C@@H](Cc1ccccc1)C(=O)OC` [SR 43282, N--(pyridin-3-ylacetyl)-Phe--Nle--Sta--Leu--Phe--OMe] ({Acetyl(3-pyridyl)}-F[Nle][Sta]LF-OMe), the half-inhibitory concentration (IC50) was 0.0794 µM.
Next, `CCCC[C@H](NC(=O)[C@H](Cc1ccccc1)NC(=O)Cc1ccncc1)C(=O)N[C@@H](CC(C)C)[C@@H](O)CC(=O)N[C@@H](CC(C)C)C(=O)N[C@@H](Cc1ccccc1)C(=O)OC` [SR 43781, N--(pyridin-4-ylacetyl)-Phe--Nle--Sta--Leu--Phe--OMe] ({Acetyl(4-pyridyl)}-F[Nle][Sta]LF-OMe): 0.132 µM.
Next, `CCCC[C@H](NC(=O)[C@H](Cc1ccccc1)NC(=O)CCC(=O)c1ccccn1)C(=O)N[C@@H](CC(C)C)[C@@H](O)CC(=O)N[C@@H](CC(C)C)C(=O)N[C@@H](Cc1ccccc1)C(=O)OC` [SR 42793] (X2-F[Nle][Sta]LF-OMe): 0.891 µM; `CCCC[C@H](NC(=O)[C@H](Cc1ccccc1)NC(=O)CC1CCCN(C(=O)OC(C)(C)C)C1)C(=O)N[C@@H](CC(C)C)[C@@H](O)CC(=O)N[C@@H](CC(C)C)C(=O)N[C@@H](Cc1ccccc1)C(=O)OC` (stereo partly shown) [SR 43519, N--(N--Boc--piperidin-3-ylacetyl)-Phe--Nle--Sta--Leu--Phe--OMe] (Boc-[X3]F[Nle][Sta]LF-OMe): 0.174 µM; `CCCC[C@H](NC(=O)[C@H](Cc1ccccc1)NC(=O)CCC(O)c1cccnc1)C(=O)N[C@@H](CC(C)C)[C@@H](O)CC(=O)N[C@@H](CC(C)C)C(=O)N[C@@H](Cc1ccccc1)C(=O)OC` (stereo partly drawn) [SR 43123, (R,S)--N--(4-(pyridin-3-yl)-4-hydroxybutyryl)-Phe--Nle--Sta--Leu--Phe--OMe] (X7-F[Nle][Sta]LF-OMe): 0.0813 µM.
As for `CCCC[C@H](NC(=O)[C@H](Cc1ccccc1)NC(=O)CCC(O)c1ccccn1)C(=O)N[C@@H](CC(C)C)[C@@H](O)CC(=O)N[C@@H](CC(C)C)C(=O)N[C@@H](Cc1ccccc1)C(=O)OC` (stereo partly shown) [SR 42991] (X5-F[Nle][Sta]LF-OMe), the IC50 was 0.0589 µM.
Next, `CCCC[C@H](NC(=O)[C@H](Cc1ccccc1)NC(=O)Cc1ccccn1)C(=O)N[C@@H](CC(C)C)[C@@H](O)CC(=O)N[C@@H](CC(C)C)C(=O)N[C@@H](Cc1ccccc1)C(=O)OC` [SR 43314, N--(pyridin-2-ylacetyl)-Phe--Nle--Sta--Leu--Phe--OMe] ({Acetyl(pyridin-2-yl)}-F[Nle][Sta]LF-OMe): 0.295 µM.
The result for `CCCC[C@H](NC(=O)[C@H](Cc1ccccc1)NC(=O)c1cccnc1)C(=O)N[C@@H](CC(C)C)[C@@H](O)CC(=O)N[C@@H](C)C(=O)N[C@@H](CC(C)C)C(=O)OC` [SR 42873, N-(Nicotinoyl)-Phe-Nle-Sta-Ala-Leu-OMe] (Nicotinoyl-F[Nle][Sta]AL-OMe) reads 0.0813 µM.
Next, `CCCC[C@H](NC(=O)[C@H](Cc1ccccc1)NC(=O)CCc1ccncc1)C(=O)N[C@@H](CC(C)C)[C@@H](O)CC(=O)N[C@@H](CC(C)C)C(=O)N[C@@H](Cc1ccccc1)C(=O)OC` [SR 43633, N--(3-(pyridin-4-yl)propionyl)-Phe--Nle--Sta--Leu--Phe--OMe] ({Propanoyl(3-(4-pyridyl))}-F[Nle][Sta]LF-OMe): 0.204 µM; `CCCC[C@H](NC(=O)[C@H](Cc1ccccc1)NC(=O)CCc1cccnc1)C(=O)N[C@@H](CC(C)C)[C@@H](O)CC(=O)N[C@@H](CC(C)C)C(=O)N[C@@H](Cc1ccccc1)C(=O)OC` [SR 43454, N--(3-(pyridin-3-yl)propionyl)-Phe--Nle--Sta--Leu--Phe--OMe] ({Propanoyl(3-(3-pyridyl))}-F[Nle][Sta]LF-OMe): 0.0676 µM; `CCCC[C@H](NC(=O)[C@H](Cc1ccccc1)NC(=O)CCC(=O)c1cccnc1)C(=O)N[C@@H](CC(C)C)[C@@H](O)CC(=O)N[C@@H](CC(C)C)C(=O)N[C@@H](Cc1ccccc1)C(=O)OC` [SR 43108, N--(4-(pyridin-3-yl)-4-oxobutyryl)-Phe--Nle--Sta--Leu--Phe--OMe] (X6-F[Nle][Sta]LF-OMe): 0.447 µM.
As to `CCCC[C@H](NC(=O)[C@H](Cc1ccccc1)NC(=O)CCCc1ccccn1)C(=O)N[C@@H](CC(C)C)[C@@H](O)CC(=O)N[C@@H](CC(C)C)C(=O)N[C@@H](Cc1ccccc1)C(=O)OC` [SR 43484, N--(4-(pyridin-2-yl)butyryl)-Phe--Nle--Sta--Leu--Phe--OMe] (X1-F[Nle][Sta]LF-OMe), the IC50 is 0.1 µM.
The result for `CCCC[C@H](NC(=O)[C@H](Cc1ccccc1)NC(=O)CCCc1cccnc1)C(=O)N[C@@H](CC(C)C)[C@@H](O)CC(=O)N[C@@H](CC(C)C)C(=O)N[C@@H](Cc1ccccc1)C(=O)OC` [SR 43782, N--(4-(pyridin-3-yl)butyryl)-Phe--Nle--Sta--Leu--Phe--OMe] (X8-F[Nle][Sta]LF-OMe) reads 0.0417 µM.
